According to patent US20240299504A1, “COMPOSITIONS AND METHODS FOR TREATING ALZHEIMERS DISEASE” (priority 2023, published 2024):

Columns and labels:
Aβ plaques = test: Aβ deposition assay (Thioflavin S staining); assay type: in vivo, mouse; conditions: vs Veh
Procedure: (§1) Parathyroid hormone (human) was purchased from TOCRIS Bioscience (Cat #3011/1, Abingdon, United Kingdom). WT or 5×FAD mice (both male and female) were treated with PTH1-34 intermittently [once daily injection of hPTH1-34 (50 μg/Kg) or vehicle (0.9% sodium chloride) (as a control) by subcutaneous injection, starting at 2-MO, 5 days per week] as described previously. Mice were then subjected to behavioral tests and sacrificed for examinations of their bone and brain phenotypes at the indicated ages.
Thioflavin S (Thio-S) staining was used for Aβ deposition assay as previously described with minimal modification. Beginning with the lateral-most section in the ROI (region of interest), every sixth tissue section of six consecutive sections was used. […] The brain slices were then washed with a series of graded EtOH in the dark as follows: 95% EtOH for 2 min, 80% EtOH for 2 min, and 70% EtOH for 2 min. Finally, the brain slices were washed with PBS 3 times in the dark and transferred to slides for sealing with an antifade fluorescence mounting medium. All the brain slices were captured on a Laser confocal microscopy. The images were adjusted to the same threshold to increase signal-to-noise ratio. Plaques >5.5 μm^2 were quantified. Four sections per mouse were quantified. The layers or sub-regions of cortex and hippocampus in each image were outlined and analyzed with the National Institutes of Health ImageJ software.

5×FAD astrocytes = test: Senescence markers in cultured astrocytes (RT-PCR, SA-β-gal staining); assay type: cell-based, mouse; conditions: cultured 5×FAD astrocytes, 100 ng/ml, 24 h
Procedure: Total RNA was extracted from cortex, hippocampus, or cultured astrocytes using a TRizol reagent (Invitrogen, cat #15596-026, Carlsbad, CA, USA) as previously described. Purified RNA (1-5 μg) was used for cDNA synthesis with the Revert Aid First Strand cDNA Synthesis Kit (Thermo Scientific, cat #K1621, Waltham, MA, USA). The cDNA products were subjected to subsequent quantitative PCR (qPCR) using the QuantiFast SYBR Green PCR Kit (QIA-GEN, cat #204057, Hilden, Germany) with a qPCR System (StepOne Plus). Each sample was repeated at least 3 times, and the mRNA level was normalized to GAPDH using the 2^−ΔΔCt method.
Astrocyte culture was performed according to the standard protocol with some modifications as described in previous literature. In brief, the cerebral cortex and hippocampus of postnatal day 3 (P3) female pups were dissected under a stereomicroscope and placed in ice-cold calcium- and magnesium-free HBSS (Hanks Balanced Salt Solution). The tissues were digested with 2.5% trypsin-EDTA, 3 ml for each mouse, at 37° C. for 20 min with shaking slightly every 5 min. […]
SA-β-gal staining of cultured astrocytes was performed as previously reported. […] The SA-β-gal intensity was quantified by the NIH ImageJ software.

IBA1 and GFAP = test: Western blot of IBA1 and GFAP in cortex and hippocampus homogenates; assay type: in vivo, mouse; conditions: 5×FAD brain homogenates (cortex and hippocampus), 6-MO female
Procedure: as §1
(§2) Total proteins from cortex, hippocampus, or cultured astrocytes were extracted using RIPA lysis buffer [50 mM Tris-HCl (pH7.5), 150 mM NaCl, 1 mM EDTA, 1% v/v NP-40, 0.1% SDS, 1% sodium deoxycholate supplemented with Protease Inhibitor Cocktail (Roche) and 1 mM PMSF] and analyzed by Western Blot. Lysates were cleared by centrifugation at 12,000 g for 15 min at 4° C. to remove debris and to obtain homogenates. Homogenates samples were resolved by SDS-PAGE (8˜15%) gels and then electroblotted onto nitrocellulose membranes (Cat #1620112, Bio-Rad Laboratories). […] After washing with TBST 3 times, antibody reactivity was detected by the Enhanced Chemiluminescence (ECL) detection system (Amersham Biosciences). Band density of proteins was normalized in relation to loading control and analyzed using NIH ImageJ software. […]

[1] = system: ATG9A+ dystrophic neurites; test: Co-immunostaining ThioS/ATG9A, plaque-associated dystrophic neurites; assay type: in vivo, mouse; conditions: cortex and hippocampus, ~6 MO 5×FAD female mice vs Veh
Procedure: as §1
DAPI was used for nucleus staining.

p16Ink4a and p53 = test: Senescence markers in hippocampus (RT-PCR, Western blot); assay type: in vivo, mouse
Procedure: as §1, §2

Compound: CC[C@H](C)[C@H](NC(=O)[C@H](CCC(=O)O)NC(=O)[C@H](CO)NC(=O)[C@@H](NC(=O)[C@@H](N)CO)C(C)C)C(=O)N[C@@H](CCC(N)=O)C(=O)N[C@@H](CC(C)C)C(=O)N[C@@H](CCSC)C(=O)N[C@@H](Cc1cnc[nH]1)C(=O)N[C@@H](CC(N)=O)C(=O)N[C@@H](CC(C)C)C(=O)NCC(=O)N[C@@H](CCCCN)C(=O)N[C@@H](Cc1cnc[nH]1)C(=O)N[C@@H](CC(C)C)C(=O)N[C@@H](CC(N)=O)C(=O)N[C@@H](CO)C(=O)N[C@@H](CCSC)C(=O)N[C@@H](CCC(=O)O)C(=O)N[C@@H](CCCN=C(N)N)C(=O)N[C@H](C(=O)N[C@@H](CCC(=O)O)C(=O)N[C@@H](Cc1c[nH]c2ccccc12)C(=O)N[C@@H](CC(C)C)C(=O)N[C@@H](CCCN=C(N)N)C(=O)N[C@@H](CCCCN)C(=O)N[C@@H](CCCCN)C(=O)N[C@@H](CC(C)C)C(=O)N[C@@H](CCC(N)=O)C(=O)N[C@@H](CC(=O)O)C(=O)N[C@H](C(=O)N[C@@H](Cc1cnc[nH]1)C(=O)N[C@@H](CC(N)=O)C(=O)N[C@@H](Cc1ccccc1)C(=O)O)C(C)C)C(C)C [PTH1-34]
- reduction in plaque density (Aβ plaques; female 5×FAD cortex): ~46%
- reduction in plaque size (Aβ plaques; female 5×FAD cortex): ~34%
- reduction in plaque density (Aβ plaques; female 5×FAD hippocampus): ~59%
- reduction in plaque size (Aβ plaques; female 5×FAD hippocampus): ~56%
- reduction in plaque density (Aβ plaques; male 5×FAD cortex): ~32%
- reduction in plaque size (Aβ plaques; male 5×FAD cortex): ~28%
- reduction in plaque density (Aβ plaques; male 5×FAD hippocampus): ~50%
- reduction in plaque size (Aβ plaques; male 5×FAD hippocampus): ~23%
- SA-β-gal+ astrocytes (5×FAD astrocytes): attenuated
- p53 expression (RT-PCR) (5×FAD astrocytes): diminished
- GFAP protein level (Western blot) (IBA1 and GFAP): lower
- IBA1 protein level (Western blot) (IBA1 and GFAP): lower
- ATG9A+ dystrophic neurites [1]: smaller and less dense ATG9A+ dystrophic neurites
- p53 protein (Western blot) (p16Ink4a and p53; hippocampus homogenates, 6-MO female 5×FAD mice): reduced
- p16Ink4a and p53 transcripts (RT-PCR) (p16Ink4a and p53; hippocampus, 6-MO 5×FAD female mice): great reduction
